Data reported in the OligoGym collection.
HELM strings list units from the 5' end as sugar, base in round brackets, then linkage (d deoxyribose, r ribose, m 2'-O-methyl, p phosphodiester). Strings are as the collection lists them; they lack the last nucleoside at the 3' end of the tested compound. [moe] = 2'-O-(2-methoxyethyl) (MOE); [sp] = phosphorothioate linkage; [m5C] = 5-methylcytosine

target: UBE3A-ATS; assay: mouse, dose not given; conditions: ASO

**Q.** How did the 3 h FOB score turn out when “RNA1{[moe](T)[sp].[moe]([m5C])p.[moe](A)p.[moe]([m5C])p.[moe](A)p.d(T)[sp].d(T)[sp].d(A)[sp].d([m5C])[sp].d([m5C])[sp].d([m5C])[sp].d(A)[sp].d(T)[sp].d([m5C])[sp].d([m5C])[sp].[moe](G)p.[moe](T)p.[moe](T)[sp].[moe]([m5C])}$$$$ (last 3' nucleoside missing)” was run?
**A.** The 3 h FOB score was 0 score 0-7.

**Q.** With “RNA1{[moe](T)[sp].[moe]([m5C])p.[moe](A)p.[moe]([m5C])p.[moe](T)p.d(G)[sp].d(A)[sp].d(G)[sp].d(T)[sp].d(T)[sp].d(T)[sp].d(T)[sp].d(T)[sp].d(G)[sp].d(T)[sp].[moe](A)p.[moe](G)p.[moe](T)[sp].[moe](T)}$$$$ (last 3' nucleoside missing)” as the substance, how does the 3 h FOB score read?
**A.** The 3 h FOB score was 3.7 score 0-7.

**Q.** With “RNA1{[moe](T)[sp].[moe]([m5C])p.[moe](A)p.[moe]([m5C])p.[moe]([m5C])[sp].d(A)[sp].d(T)[sp].d(T)[sp].d(T)[sp].d(T)[sp].d(G)[sp].d(A)[sp].d([m5C])[sp].[moe]([m5C])p.[moe](T)p.[moe](T)[sp].[moe]([m5C])}$$$$ (last 3' nucleoside missing)” as the substance, how does the 3 h FOB score read?
**A.** Its 3 h FOB score is 2 score 0-7.

**Q.** “RNA1{[moe](T)[sp].[moe]([m5C])p.[moe](A)p.[moe]([m5C])p.[moe]([m5C])p.[moe](A)[sp].d(T)[sp].d(T)[sp].d(T)[sp].d(T)[sp].d(G)[sp].d(A)[sp].d([m5C])[sp].d([m5C])[sp].[moe](T)p.[moe](T)[sp].[moe]([m5C])}$$$$ (last 3' nucleoside missing)” was tested. Which 3 h FOB score did it give?
**A.** The 3 h FOB score was 0.3 score 0-7.

**Q.** “RNA1{[moe](T)[sp].[moe]([m5C])p.[moe](A)p.[moe]([m5C])p.[moe]([m5C])p.[moe](A)p.d(T)[sp].d(T)[sp].d(T)[sp].d(T)[sp].d(G)[sp].d(A)[sp].d([m5C])[sp].d([m5C])[sp].d(T)[sp].d(T)[sp].[moe]([m5C])p.[moe](T)[sp].[moe](T)}$$$$ (last 3' nucleoside missing)” was tested. Which 3 h FOB score did it give?
**A.** The 3 h FOB score was 1 score 0-7.

**Q.** How did the 3 h FOB score turn out when “RNA1{[moe](T)[sp].[moe]([m5C])p.[moe](A)p.[moe]([m5C])p.[moe]([m5C])p.d(A)[sp].d(T)[sp].d(T)[sp].d(T)[sp].d(T)[sp].d(G)[sp].d(A)[sp].d([m5C])[sp].d([m5C])[sp].d(T)[sp].[moe](T)p.[moe]([m5C])p.[moe](T)[sp].[moe](T)}$$$$ (last 3' nucleoside missing)” was run?
**A.** The 3 h FOB score was 1 score 0-7.

**Q.** “RNA1{[moe](T)[sp].[moe]([m5C])p.[moe](A)p.[moe]([m5C])p.d([m5C])[sp].d(A)[sp].d(T)[sp].d(T)[sp].d(T)[sp].d(T)[sp].d(G)[sp].d(A)[sp].d([m5C])[sp].d([m5C])[sp].[moe](T)p.[moe](T)p.[moe]([m5C])p.[moe](T)[sp].[moe](T)}$$$$ (last 3' nucleoside missing)” was tested. Which 3 h FOB score did it give?
**A.** Its 3 h FOB score is 2 score 0-7.

**Q.** With “RNA1{[moe](T)[sp].[moe]([m5C])p.[moe](G)p.[moe](G)p.[moe](A)p.d(T)[sp].d(A)[sp].d(T)[sp].d(A)[sp].d(G)[sp].d([m5C])[sp].d(T)[sp].d(T)[sp].d(T)[sp].d(T)[sp].[moe](A)p.[moe]([m5C])p.[moe](A)[sp].[moe](T)}$$$$ (last 3' nucleoside missing)” as the substance, how does the 3 h FOB score read?
**A.** The 3 h FOB score was 1 score 0-7.

**Q.** Which 3 h FOB score does the source give for “RNA1{[moe](T)[sp].[moe]([m5C])p.[moe](T)p.[moe](G)p.[moe](G)p.d(A)[sp].d(A)[sp].d(T)[sp].d([m5C])[sp].d(T)[sp].d(T)[sp].d(G)[sp].d(T)[sp].d(A)[sp].d(G)[sp].[moe](A)p.[moe](G)p.[moe](G)[sp].[moe](A)}$$$$ (last 3' nucleoside missing)” here?
**A.** The 3 h FOB score was 2.7 score 0-7.

**Q.** With “RNA1{[moe](T)[sp].[moe]([m5C])p.[moe](T)p.[moe](G)p.[moe]([m5C])p.[moe](T)p.d([m5C])[sp].d(A)[sp].d(G)[sp].d(T)[sp].d(T)[sp].d(A)[sp].d(G)[sp].d(G)[sp].d(T)[sp].d(T)[sp].[moe](A)p.[moe](G)[sp].[moe](T)}$$$$ (last 3' nucleoside missing)” as the substance, how does the 3 h FOB score read?
**A.** Its 3 h FOB score is 4 score 0-7.

**Q.** For “RNA1{[moe](T)[sp].[moe]([m5C])p.[moe](T)p.[moe](G)p.[moe]([m5C])p.d(T)[sp].d(A)[sp].d(T)[sp].d(T)[sp].d(G)[sp].d(T)[sp].d(T)[sp].d(G)[sp].d(G)[sp].d(A)[sp].[moe](T)p.[moe](A)p.[moe](T)[sp].[moe]([m5C])}$$$$ (last 3' nucleoside missing)”, which 3 h FOB score is on record?
**A.** The 3 h FOB score was 6.5 score 0-7.

**Q.** For “RNA1{[moe](T)[sp].[moe]([m5C])p.[moe](T)p.[moe](G)p.[moe]([m5C])p.d(T)[sp].d([m5C])[sp].d(A)[sp].d(G)[sp].d(T)[sp].d(T)[sp].d(A)[sp].d(G)[sp].d(G)[sp].d(T)[sp].[moe](T)p.[moe](A)p.[moe](G)[sp].[moe](T)}$$$$ (last 3' nucleoside missing)”, which 3 h FOB score is on record?
**A.** Its 3 h FOB score is 7 score 0-7.

**Q.** “RNA1{[moe](T)[sp].[moe]([m5C])p.[moe](T)p.[moe](G)p.d([m5C])[sp].d(T)[sp].d([m5C])[sp].d(A)[sp].d(G)[sp].d(T)[sp].d(T)[sp].d(A)[sp].d(G)[sp].d(G)[sp].[moe](T)p.[moe](T)p.[moe](A)p.[moe](G)[sp].[moe](T)}$$$$ (last 3' nucleoside missing)” was tested. Which 3 h FOB score did it give?
**A.** The 3 h FOB score was 4 score 0-7.

**Q.** “RNA1{[moe](T)[sp].[moe]([m5C])p.[moe](T)p.[moe](T)p.[moe](A)p.d([m5C])[sp].d(T)[sp].d(G)[sp].d(A)[sp].d(T)[sp].d(T)[sp].d([m5C])[sp].d(A)[sp].d(G)[sp].d([m5C])[sp].[moe]([m5C])p.[moe](A)p.[moe](T)[sp].[moe](T)}$$$$ (last 3' nucleoside missing)” was tested. Which 3 h FOB score did it give?
**A.** Its 3 h FOB score is 4 score 0-7.

**Q.** For “RNA1{[moe](T)[sp].[moe]([m5C])p.[moe](T)p.[moe](T)p.[moe](G)p.d([m5C])[sp].d(T)[sp].d(G)[sp].d(A)[sp].d(T)[sp].d([m5C])[sp].d(A)[sp].d([m5C])[sp].d(A)[sp].d(T)[sp].[moe](T)p.[moe](A)p.[moe]([m5C])[sp].[moe]([m5C])}$$$$ (last 3' nucleoside missing)”, which 3 h FOB score is on record?
**A.** The 3 h FOB score was 0 score 0-7.

**Q.** Which 3 h FOB score does the source give for “RNA1{[moe](T)[sp].[moe]([m5C])p.[moe](T)p.[moe]([m5C])p.[moe](A)p.d(T)[sp].d(G)[sp].d(T)[sp].d(G)[sp].d(T)[sp].d(T)[sp].d(T)[sp].d(T)[sp].d(T)[sp].d(G)[sp].[moe](T)p.[moe](T)p.[moe]([m5C])[sp].[moe]([m5C])}$$$$ (last 3' nucleoside missing)” here?
**A.** Its 3 h FOB score is 5 score 0-7.

**Q.** With “RNA1{[moe](T)[sp].[moe]([m5C])p.[moe](T)p.[moe]([m5C])p.[moe](G)p.d(G)[sp].d(G)[sp].d(T)[sp].d(A)[sp].d(T)[sp].d(A)[sp].d(T)[sp].d(A)[sp].d(A)[sp].d(A)[sp].[moe](T)p.[moe](T)p.[moe](A)[sp].[moe](A)}$$$$ (last 3' nucleoside missing)” as the substance, how does the 3 h FOB score read?
**A.** The 3 h FOB score was 0 score 0-7.

**Q.** With “RNA1{[moe](T)[sp].[moe]([m5C])p.[moe](T)p.[moe]([m5C])p.[moe]([m5C])p.d(A)[sp].d(G)[sp].d(T)[sp].d(T)[sp].d(T)[sp].d(T)[sp].d([m5C])[sp].d(G)[sp].d([m5C])[sp].d([m5C])[sp].[moe]([m5C])p.[moe](G)p.[moe](T)[sp].[moe](T)}$$$$ (last 3' nucleoside missing)” as the substance, how does the 3 h FOB score read?
**A.** The 3 h FOB score was 4.7 score 0-7.

**Q.** Which 3 h FOB score does the source give for “RNA1{[moe](T)[sp].[moe]([m5C])p.[moe]([m5C])p.[moe]([m5C])p.[moe](A)p.d(T)[sp].d(T)[sp].d([m5C])[sp].d(A)[sp].d(G)[sp].d([m5C])[sp].d(A)[sp].d([m5C])[sp].d(T)[sp].d(T)[sp].[moe](A)p.[moe](G)p.[moe](G)[sp].[moe](T)}$$$$ (last 3' nucleoside missing)” here?
**A.** The 3 h FOB score was 3 score 0-7.

**Q.** With “RNA1{[moe](T)[sp].[moe]([m5C])p.[moe]([m5C])p.[moe]([m5C])p.[moe](A)p.d(T)[sp].d([m5C])[sp].d(A)[sp].d(T)[sp].d([m5C])[sp].d(A)[sp].d(G)[sp].d(T)[sp].d(G)[sp].d(T)[sp].[moe](G)p.[moe](T)p.[moe](G)[sp].[moe]([m5C])}$$$$ (last 3' nucleoside missing)” as the substance, how does the 3 h FOB score read?
**A.** The 3 h FOB score was 3.25 score 0-7.

**Q.** For “RNA1{[moe]([m5C])[sp].[moe](A)[sp].[moe](A)[sp].[moe]([m5C])[sp].[moe](T)[sp].d(G)[sp].d(T)[sp].d(T)[sp].d(A)[sp].d([m5C])[sp].d([m5C])[sp].d(A)[sp].d(A)[sp].d(G)[sp].d(A)[sp].[moe]([m5C])[sp].[moe](T)[sp].[moe](T)[sp].[moe]([m5C])}$$$$ (last 3' nucleoside missing)”, which 3 h FOB score is on record?
**A.** Its 3 h FOB score is 4.8 score 0-7.

**Q.** With “RNA1{[moe]([m5C])[sp].[moe](A)p.[moe](A)p.[moe](G)p.[moe](A)p.d([m5C])[sp].d([m5C])[sp].d(T)[sp].d(A)[sp].d(T)[sp].d(A)[sp].d(G)[sp].d(G)[sp].d(A)[sp].d([m5C])[sp].[moe]([m5C])p.[moe](T)p.[moe]([m5C])[sp].[moe](A)}$$$$ (last 3' nucleoside missing)” as the substance, how does the 3 h FOB score read?
**A.** The 3 h FOB score was 3 score 0-7.

**Q.** Which 3 h FOB score does the source give for “RNA1{[moe]([m5C])[sp].[moe](A)p.[moe](A)p.[moe](T)p.[moe](G)p.d(G)[sp].d(T)[sp].d(T)[sp].d(T)[sp].d(A)[sp].d(G)[sp].d(T)[sp].d(G)[sp].d(T)[sp].d([m5C])[sp].[moe](A)p.[moe](T)p.[moe](A)[sp].[moe](T)}$$$$ (last 3' nucleoside missing)” here?
**A.** The 3 h FOB score was 5 score 0-7.

**Q.** With “RNA1{[moe]([m5C])[sp].[moe](A)p.[moe](A)p.[moe]([m5C])p.[moe](T)p.d(T)[sp].d([m5C])[sp].d(A)[sp].d(T)[sp].d([m5C])[sp].d(A)[sp].d(A)[sp].d(T)[sp].d(A)[sp].d(T)[sp].[moe](T)p.[moe](T)p.[moe]([m5C])[sp].[moe]([m5C])}$$$$ (last 3' nucleoside missing)” as the substance, how does the 3 h FOB score read?
**A.** The 3 h FOB score was 1 score 0-7.

**Q.** For “RNA1{[moe]([m5C])[sp].[moe](A)p.[moe](G)p.[moe](A)p.[moe](G)p.d(T)[sp].d(G)[sp].d(T)[sp].d([m5C])[sp].d(T)[sp].d(T)[sp].d(A)[sp].d(G)[sp].d(G)[sp].d(G)[sp].[moe](T)p.[moe]([m5C])p.[moe](T)[sp].[moe]([m5C])}$$$$ (last 3' nucleoside missing)”, which 3 h FOB score is on record?
**A.** Its 3 h FOB score is 5.5 score 0-7.

**Q.** Which 3 h FOB score does the source give for “RNA1{[moe]([m5C])[sp].[moe](A)p.[moe](G)p.[moe](A)p.[moe](T)p.d(T)[sp].d([m5C])[sp].d([m5C])[sp].d(T)[sp].d(A)[sp].d(A)[sp].d(A)[sp].d(T)[sp].d(A)[sp].d([m5C])[sp].[moe](G)p.[moe]([m5C])p.[moe](A)[sp].[moe]([m5C])}$$$$ (last 3' nucleoside missing)” here?
**A.** The 3 h FOB score was 0 score 0-7.
